{"source": "patent US5441936A", "about": "“Antiviral peptides” (priority 1993, dated 1995)", "note": "Non-standard residues stand in square brackets, D forms with d. Residues, ends and D or L forms follow the SMILES beside them.", "data": [{"system": "Herpes Simplex Virus Type-1", "assay": "Herpes Simplex Virus Type-1 plaque inhibition assay in Vero cells", "assay_type": "cell-based, Herpes simplex type 1 virus (HSV-1)", "settings": "Vero cells infected with 50 to 60 pfu HSV-1; peptide added after 2 hr virus incubation; concentration that inhibited growth of 50% of the input HSV-1", "procedure": "Vero cells were seeded into 24-we! l tissue culture plates 24 to 48 hr prior to performing the plaque assay. Herpes simplex type 1 virus (HSV-1) was diluted to 50 to 60 plaque forming units (pfu)/0.1 ml Medium 199 and 0.1 ml was added to the cells. Control cultures received 0.1 ml Medium 199 without HSV-1. Plates were incubated for 2 hr at 37° C. in 5% carbon dioxide.\nFollowing incubation of the cells with or without HSV-1, the medium was removed by aspiration. The peptides to be tested for antiviral activity were diluted in Dulbecco's modified Eagle's medium supplemented with 0.2% human gamma globulin, 5% fetal bovine serum, 10 units/ml penicillin and 5μg/ml streptomycin and 1 ml of the peptide solution was added to each of duplicate wells. Medium only was added to wells labelled for input virus or cell controls.\nCells were observed by microscopy at 24 and 48 hr to identify toxicity due to the peptides. Following the incubation period, medium was removed by aspiration and the cultures were fixed using methanol and stained with 0.037% Geimsa for 45 min. The stain was removed and the plates were rinsed and allowed to air dry. The concentration of peptide that inhibited growth of 50% of the input HSV-1 (IC50) was determined for each peptide by counting the number of viral plaques present in the peptide-treated wells as compared with the input virus control wells.\nUsing the plaque inhibition assay, a peptide was considered to have no antiviral effect in this assay if greater than 100 μg/ml of the peptide was required to inhibit growth of 50% of the input HSV-1.", "units": {"Herpes Simplex Virus Type-1 Plaque Inhibition IC50": "µg/mL"}, "values": [{"molecule": "CSCC[C@@H](NC(=O)[C@@H](CCCNC(=N)N)NC(=O)[C@@H](CS)NC(=O)[C@@H](Cc1c[nH]c2ccccc12)NC(=O)[C@@H](Cc1c[nH]c2ccccc12)NC(=O)[C@@H](CCCNC(=N)N)NC(=O)[C@@H](CCCNC(=N)N)NC(C)=O)C(N)=O", "note": "[Ac-Arg-Arg-Trp-Trp-Cys-Arg-Met-NH2]", "Herpes Simplex Virus Type-1 Plaque Inhibition IC50": "> 50"}, {"molecule": "CC(=O)N[C@H](CCCNC(=N)N)C(=O)N[C@H](CCCNC(=N)N)C(=O)N[C@H](Cc1c[nH]c2ccccc12)C(=O)N[C@H](Cc1c[nH]c2ccccc12)C(=O)N[C@H](CS)C(=O)N[C@H](CCCNC(=N)N)C(=O)N1CCC[C@@H]1C(N)=O", "note": "[Ac-Arg-Arg-Trp-Trp-Cys-Arg-Pro-NH2]", "Herpes Simplex Virus Type-1 Plaque Inhibition IC50": "> 100"}, {"molecule": "CC[C@@H](C)[C@@H](NC(=O)[C@@H](CCCNC(=N)N)NC(=O)[C@@H](CS)NC(=O)[C@@H](Cc1c[nH]c2ccccc12)NC(=O)[C@@H](Cc1c[nH]c2ccccc12)NC(=O)[C@@H](CCCNC(=N)N)NC(=O)[C@@H](CCCNC(=N)N)NC(C)=O)C(N)=O", "note": "[Ac-Arg-Arg-Trp-Trp-Cys-Arg-Ile-NH2]", "Herpes Simplex Virus Type-1 Plaque Inhibition IC50": "> 100"}, {"molecule": "CC(=O)N[C@H](CCCNC(=N)N)C(=O)N[C@H](CCCNC(=N)N)C(=O)N[C@H](Cc1c[nH]c2ccccc12)C(=O)N[C@H](Cc1c[nH]c2ccccc12)C(=O)N[C@H](CS)C(=O)N[C@H](CCCNC(=N)N)C(=O)N[C@H](CO)C(N)=O", "note": "[Ac-Arg-Arg-Trp-Trp-Cys-Arg-Ser-NH2]", "Herpes Simplex Virus Type-1 Plaque Inhibition IC50": "> 100"}, {"molecule": "CC(=O)N[C@H](CCCNC(=N)N)C(=O)N[C@H](CCCNC(=N)N)C(=O)N[C@H](Cc1c[nH]c2ccccc12)C(=O)N[C@H](Cc1c[nH]c2ccccc12)C(=O)N[C@H](CS)C(=O)N[C@H](CCCNC(=N)N)C(=O)N[C@H](CC(N)=O)C(N)=O", "note": "[Ac-Arg-Arg-Trp-Trp-Cys-Arg-Asn-NH2]", "Herpes Simplex Virus Type-1 Plaque Inhibition IC50": 85}, {"molecule": "CC(=O)N[C@H](CCCNC(=N)N)C(=O)N[C@H](CCCNC(=N)N)C(=O)N[C@H](Cc1c[nH]c2ccccc12)C(=O)N[C@H](Cc1c[nH]c2ccccc12)C(=O)N[C@H](CS)C(=O)N[C@H](CCCNC(=N)N)C(=O)N[C@H](Cc1c[nH]cn1)C(N)=O", "note": "[Ac-Arg-Arg-Trp-Trp-Cys-Arg-His-NH2]", "Herpes Simplex Virus Type-1 Plaque Inhibition IC50": "> 100"}, {"molecule": "CC(=O)N[C@H](CCCNC(=N)N)C(=O)N[C@H](CCCNC(=N)N)C(=O)N[C@H](Cc1c[nH]c2ccccc12)C(=O)N[C@H](Cc1c[nH]c2ccccc12)C(=O)N[C@H](CS)C(=O)N[C@H](CCCNC(=N)N)C(=O)N[C@H](Cc1ccc(O)cc1)C(N)=O", "note": "[Ac-Arg-Arg-Trp-Trp-Cys-Arg-Tyr-NH2]", "Herpes Simplex Virus Type-1 Plaque Inhibition IC50": "> 100"}, {"molecule": "CC(=O)N[C@H](CCCNC(=N)N)C(=O)N[C@H](CCCNC(=N)N)C(=O)N[C@H](Cc1c[nH]c2ccccc12)C(=O)N[C@H](Cc1c[nH]c2ccccc12)C(=O)N[C@H](CS)C(=O)N[C@H](CCCNC(=N)N)C(=O)NCC(N)=O", "note": "[Ac-Arg-Arg-Trp-Trp-Cys-Arg-Gly-NH2]", "Herpes Simplex Virus Type-1 Plaque Inhibition IC50": "> 100"}, {"molecule": "CC(=O)N[C@H](CCCNC(=N)N)C(=O)N[C@H](CCCNC(=N)N)C(=O)N[C@H](Cc1c[nH]c2ccccc12)C(=O)N[C@H](Cc1c[nH]c2ccccc12)C(=O)N[C@H](CS)C(=O)N[C@H](CCCNC(=N)N)C(=O)N[C@H](Cc1ccccc1)C(N)=O", "note": "[Ac-Arg-Arg-Trp-Trp-Cys-Arg-Phe-NH2]", "Herpes Simplex Virus Type-1 Plaque Inhibition IC50": 59}, {"molecule": "CC(=O)N[C@H](CCCNC(=N)N)C(=O)N[C@H](CCCNC(=N)N)C(=O)N[C@H](Cc1c[nH]c2ccccc12)C(=O)N[C@H](Cc1c[nH]c2ccccc12)C(=O)N[C@H](CS)C(=O)N[C@H](CCCNC(=N)N)C(=O)N[C@H](C)C(N)=O", "note": "[Ac-Arg-Arg-Trp-Trp-Cys-Arg-Ala-NH2]", "Herpes Simplex Virus Type-1 Plaque Inhibition IC50": 35}, {"molecule": "CC(=O)N[C@H](CCCNC(=N)N)C(=O)N[C@H](CCCNC(=N)N)C(=O)N[C@H](Cc1c[nH]c2ccccc12)C(=O)N[C@H](Cc1c[nH]c2ccccc12)C(=O)N[C@H](CS)C(=O)N[C@H](CCCNC(=N)N)C(=O)N[C@H](CCC(=O)O)C(N)=O", "note": "[Ac-Arg-Arg-Trp-Trp-Cys-Arg-Glu-NH2]", "Herpes Simplex Virus Type-1 Plaque Inhibition IC50": "> 100"}, {"molecule": "CC(=O)N[C@H](CCCNC(=N)N)C(=O)N[C@H](CCCNC(=N)N)C(=O)N[C@H](Cc1c[nH]c2ccccc12)C(=O)N[C@H](Cc1c[nH]c2ccccc12)C(=O)N[C@H](CS)C(=O)N[C@H](CCCNC(=N)N)C(=O)N[C@H](CS)C(N)=O", "note": "[Ac-Arg-Arg-Trp-Trp-Cys-Arg-Cys-NH2] (Ac-[dR][dR][dW][dW][dC][dR][dC]-NH2)", "Herpes Simplex Virus Type-1 Plaque Inhibition IC50": 50}, {"molecule": "CC(=O)N[C@H](CCCNC(=N)N)C(=O)N[C@H](CCCNC(=N)N)C(=O)N[C@H](Cc1c[nH]c2ccccc12)C(=O)N[C@H](Cc1c[nH]c2ccccc12)C(=O)N[C@H](CS)C(=O)N[C@H](CCCNC(=N)N)C(=O)N[C@H](CCC(N)=O)C(N)=O", "note": "[Ac-Arg-Arg-Trp-Trp-Cys-Arg-Gln-NH2]", "Herpes Simplex Virus Type-1 Plaque Inhibition IC50": 37}, {"molecule": "CC(=O)N[C@H](CCCNC(=N)N)C(=O)N[C@H](CCCNC(=N)N)C(=O)N[C@H](Cc1c[nH]c2ccccc12)C(=O)N[C@H](Cc1c[nH]c2ccccc12)C(=O)N[C@H](CS)C(=O)N[C@H](CCCNC(=N)N)C(=O)N[C@H](CCCNC(=N)N)C(N)=O", "note": "[Ac-Arg-Arg-Trp-Trp-Cys-Arg-Arg-NH2]", "Herpes Simplex Virus Type-1 Plaque Inhibition IC50": 62}, {"molecule": "CC(=O)N[C@H](CCCNC(=N)N)C(=O)N[C@H](CCCNC(=N)N)C(=O)N[C@H](Cc1c[nH]c2ccccc12)C(=O)N[C@H](Cc1c[nH]c2ccccc12)C(=O)N[C@H](CS)C(=O)N[C@H](CCCNC(=N)N)C(=O)N[C@H](CC(C)C)C(N)=O", "note": "[Ac-Arg-Arg-Trp-Trp-Cys-Arg-Leu-NH2]", "Herpes Simplex Virus Type-1 Plaque Inhibition IC50": 61}, {"molecule": "CC(=O)N[C@H](CCCNC(=N)N)C(=O)N[C@H](CCCNC(=N)N)C(=O)N[C@H](Cc1c[nH]c2ccccc12)C(=O)N[C@H](Cc1c[nH]c2ccccc12)C(=O)N[C@H](CS)C(=O)N[C@H](CCCNC(=N)N)C(=O)N[C@H](CC(=O)O)C(N)=O", "note": "[Ac-Arg-Arg-Trp-Trp-Cys-Arg-Asp-NH2]", "Herpes Simplex Virus Type-1 Plaque Inhibition IC50": "> 100"}, {"molecule": "CC(=O)N[C@H](CCCNC(=N)N)C(=O)N[C@H](CCCNC(=N)N)C(=O)N[C@H](Cc1c[nH]c2ccccc12)C(=O)N[C@H](Cc1c[nH]c2ccccc12)C(=O)N[C@H](CS)C(=O)N[C@H](CCCNC(=N)N)C(=O)N[C@@H](C(N)=O)[C@H](C)O", "note": "[Ac-Arg-Arg-Trp-Trp-Cys-Arg-Thr-NH2]", "Herpes Simplex Virus Type-1 Plaque Inhibition IC50": "> 100"}, {"molecule": "CC(=O)N[C@H](CCCNC(=N)N)C(=O)N[C@H](CCCNC(=N)N)C(=O)N[C@H](Cc1c[nH]c2ccccc12)C(=O)N[C@H](Cc1c[nH]c2ccccc12)C(=O)N[C@H](CS)C(=O)N[C@H](CCCNC(=N)N)C(=O)N[C@@H](C(N)=O)C(C)C", "note": "[Ac-Arg-Arg-Trp-Trp-Cys-Arg-Val-NH2]", "Herpes Simplex Virus Type-1 Plaque Inhibition IC50": 58}, {"molecule": "CC(=O)N[C@H](CCCNC(=N)N)C(=O)N[C@H](CCCNC(=N)N)C(=O)N[C@H](Cc1c[nH]c2ccccc12)C(=O)N[C@H](Cc1c[nH]c2ccccc12)C(=O)N[C@H](CS)C(=O)N[C@H](CCCNC(=N)N)C(=O)N[C@H](Cc1c[nH]c2ccccc12)C(N)=O", "note": "[Ac-Arg-Arg-Trp-Trp-Cys-Arg-Trp-NH2]", "Herpes Simplex Virus Type-1 Plaque Inhibition IC50": 37}, {"molecule": "CC(=O)N[C@H](CCCNC(=N)N)C(=O)N[C@H](CCCNC(=N)N)C(=O)N[C@H](Cc1c[nH]c2ccccc12)C(=O)N[C@H](Cc1c[nH]c2ccccc12)C(=O)N[C@H](CS)C(=O)N[C@H](CCCNC(=N)N)C(=O)N[C@H](CCCCN)C(N)=O", "note": "[Ac-Arg-Arg-Trp-Trp-Cys-Arg-Lys-NH2]", "Herpes Simplex Virus Type-1 Plaque Inhibition IC50": 50}]}]}
